Measurements as given in patent US10508104B2, “6-hydroxy-5-(phenyl/heteroarylsulfonyl)pyrimidin-4(1H)-one as APJ agonists” (Bristol-Myers Squibb Company, priority 2016, dated 2019).

Target: human APJ receptor (Homo sapiens (Human), UniProt P35414)
Test: Intracellular cAMP accumulation assay (APJ hcAMP, HTRF)
Assay type: cell-based
Conditions: HEK293 cells stably expressing human APJ receptor; inhibition of forskolin-mediated cAMP production; read-out: Human APJ cAMP EC50 Potency range
Summary of the method: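 HEK293 cells stably expressing human APJ, 5,000 per well, incubated 30 min at rt with compound, […] and 2 μM forskolin. cAMP measured by HTRF against a cAMP standard curve as inhibition of forskolin-driven production. EC50 from variable-slope sigmoidal fit.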

Chain of human APJ receptor (P35414 whole entry): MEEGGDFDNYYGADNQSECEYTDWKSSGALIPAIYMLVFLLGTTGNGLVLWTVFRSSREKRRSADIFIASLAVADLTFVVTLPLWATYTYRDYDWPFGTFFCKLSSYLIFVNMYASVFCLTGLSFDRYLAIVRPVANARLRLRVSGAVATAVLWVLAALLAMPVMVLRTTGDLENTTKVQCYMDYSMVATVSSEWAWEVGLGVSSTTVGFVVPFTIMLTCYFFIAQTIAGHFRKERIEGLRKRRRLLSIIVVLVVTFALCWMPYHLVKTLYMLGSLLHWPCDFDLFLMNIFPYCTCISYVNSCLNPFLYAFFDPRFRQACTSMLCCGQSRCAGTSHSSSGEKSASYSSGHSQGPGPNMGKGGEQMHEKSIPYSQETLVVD

| EC50 [nM] | SMILES |
| --- | --- |
| 0.01 to 10 | CC[C@@H](c1cccc(C#N)c1)n1c(CC2CC2)nc(=O)c(S(=O)(=O)c2ccc(-c3ccncc3C#N)cc2)c1O [Example 474, 4-[4-({1-[(1S)-1-(3-cyanophenyl)propyl]-2-(cyclopropylmethyl)-6-hydroxy-4-oxo-1,4-dihydropyrimidin-5-yl}sulfonyl)phenyl] pyridine-3-carbonitrile] |
| 0.01 to 10 | CC[C@@H](c1cc(F)cc(C#N)c1)n1c(CC2CC2)nc(=O)c(S(=O)(=O)c2ccc(-c3ccncc3C)cc2)c1O [Example 475, 3-[(1S)-1-[2-(cyclopropylmethyl)-6-hydroxy-5-[4-(3-methylpyridin-4-yl)benzenesulfonyl]-4-oxo-1,4-dihydropyrimidin-1-yl]propyl]-5-fluorobenzonitrile] |
| 0.01 to 10 | CCCCc1nc(=O)c(S(=O)(=O)c2ccc(-c3ccnc(F)c3C)cc2)c(O)n1[C@H](c1cccc(C#N)c1)C1CC1 [Example 476, 3-[(S)-{2-butyl-5-[4-(2-fluoro-3-methylpyridin-4-yl)benzenesulfonyl]-6-hydroxy-4-oxo-1,4-dihydropyrimidin-1-yl}(cyclopropyl)methyl] benzonitrile] |
| 0.01 to 10 | CCCCc1nc(=O)c(S(=O)(=O)c2ccc(-c3ccc(F)cc3C(N)=O)cc2)c(O)n1[C@H](c1cccc(C#N)c1)C1CC1 [Example 477, 4′-({2-butyl-1-[(S)-(3-cyanophenyl)(cyclopropyl)methyl]-6-hydroxy-4-oxo-1,4-dihydropyrimidin-5-yl}sulfonyl)-4-fluoro-[1,1′-biphenyl]-2-carboxamide] |
| 0.01 to 10 | C/C=C(/c1cccc(C#N)c1)n1c(CCCC)nc(=O)c(S(=O)(=O)c2ccc(-c3ccncc3C)cc2)c1O [Example 478, 3-[(1Z)-1-{2-butyl-6-hydroxy-5-[4-(3-methylpyridin-4-yl)benzenesulfonyl]-4-oxo-1,4-dihydropyrimidin-1-yl}prop-1-en-1-yl]benzonitrile] |
| 0.01 to 10 | CCCCc1nc(=O)c(S(=O)(=O)c2ccc(-c3ccc(F)nc3C)cc2)c(O)n1[C@H](c1cccc(C#N)c1)C1CC1 [Example 479, 3-[(S)-{2-butyl-5-[4-(6-fluoro-2-raethylpyridin-3-yl)benzenesulfonyl]-6-hydroxy-4-oxo-1,4-dihydropyrimidin-1-yl}(cyclopropyl)methyl] benzonitrile] |
| 0.01 to 10 | CCCCc1nc(=O)c(S(=O)(=O)c2ccc(-c3cccn(C)c3=O)cc2)c(O)n1[C@H](c1cccc(C#N)c1)C1CC1 [Example 480, 3-[(S)-{2-butyl-6-hydroxy-5-[4-(1-methyl-2-oxo-1,2-dihydropyridin-3-yl)benzenesulfonyl]-4-oxo-1,4-dihydropyrimidin-1-yl}(cyclopropyl)methyl] benzonitrile] |
| 0.01 to 10 | CCCCc1nc(=O)c(S(=O)(=O)c2ccc(-c3ccccc3C(=O)OC)cn2)c(O)n1[C@@H](CC)c1cccc(C#N)c1 [Example 481, methyl 2-[6-({2-butyl-1-[(1S)-1-(3-cyanophenyl)propyl]-6-hydroxy-4-oxo-1,4-dihydropyrimidin-5-yl}sulfonyl)pyridin-3-yl]benzoate] |

More lines, now with the values behind:

| SMILES | EC50 [nM] |
| --- | --- |
| CCCCc1nc(=O)c(S(=O)(=O)c2ccc(-c3ccnc(F)c3C)cn2)c(O)n1[C@@H](CC)c1cccc(C#N)c1 [Example 456, 3-[(1S)-1-[2-butyl-5-({2′-fluoro-3′-methyl-[3,4′-bipyridine]-6-yl}sulfonyl)-6-hydroxy-4-oxo-1,4-dihydropyrimidin-1-yl]propyl]benzonitrile] | 0.01 to 10 |
| CCCCc1nc(=O)c(S(=O)(=O)c2ccc(-c3ccncc3C)cn2)c(O)n1[C@@H](CC)c1cccc(C#N)c1 [Example 457, 3-[(1S)-1-[2-butyl-6-hydroxy-5-({3′-methyl-[3,4′-bipyridine]-6-yl}sulfonyl)-4-oxo-1,4-dihydropyrimidin-1-yl]propyl]benzonitrile] | 0.01 to 10 |
| CCCCc1nc(=O)c(S(=O)(=O)c2ccc(-c3ccnc(F)c3C)cc2)c(O)n1[C@@H](CC)c1cc(F)cc(C#N)c1 [Example 458, 3-[(1S)-1-{2-butyl-5-[4-(2-fluoro-3-methylpyridin-4-yl)benzenesulfonyl]-6-hydroxy-4-oxo-1,4-dihydropyrimidin-1-yl}propyl]-5-fluorobenzonitrile] | 0.01 to 10 |
| CCCCc1nc(=O)c(S(=O)(=O)c2ccc(-c3ccnc(F)c3C)cc2)c(O)n1C(c1cccc(C#N)c1)C1CC1 (centres unmarked) [Example 459, 3-({2-butyl-5-[4-(2-fluoro-3-methylpyridin-4-yl)benzenesulfonyl]-6-hydroxy-4-oxo-1,4-dihydropyrimidin-1-yl}(cyclopropyl)methyl) benzonitrile] | 0.01 to 10 |
| CCCCc1nc(=O)c(S(=O)(=O)c2ccc(-c3cccnc3C)cc2)c(O)n1C(c1cccc(C#N)c1)C1CC1 (centres unmarked) [Example 460, 3-({2-butyl-6-hydroxy-5-[4-(2-methylpyridin-3-yl)benzenesulfonyl]-4-oxo-1,4-dihydropyrimidin-1-yl}(cyclopropyl)methyl) benzonitrile] | 0.01 to 10 |
| CCCCc1nc(=O)c(S(=O)(=O)c2ccc(-c3ccc(F)nc3C)cc2)c(O)n1C(c1cccc(C#N)c1)C1CC1 (centres unmarked) [Example 461, 3-({2-butyl-5-[4-(6-fluoro-2-methylpyridin-3-yl)benzenesulfonyl]-6-hydroxy-4-oxo-1,4-dihydropyrimidin-1-yl}(cyclopropyl)methyl) benzonitrile] | 0.01 to 10 |
| CCCCc1nc(=O)c(S(=O)(=O)c2ccc(-c3ccncc3C)cc2)c(O)n1C(c1cccc(C#N)c1)C1CC1 (centres unmarked) [Example 462, 3-({2-butyl-6-hydroxy-5-[4-(3-methylpyridin-4-yl)benzenesulfonyl]-4-oxo-1,4-dihydropyrimidin-1-yl}(cyclopropyl)methyl) benzonitrile] | 0.01 to 10 |
| CCCCc1nc(=O)c(S(=O)(=O)c2ccc(-c3ccccc3C#N)cn2)c(O)n1[C@@H](CC)c1cccc(C#N)c1 [Example 463, 2-[6-({2-butyl-1-[(1S)-1-(3-cyanophenyl)propyl]-6-hydroxy-4-oxo-1,4-dihydropyrimidin-5-yl}sulfonyl)pyridin-3-yl]benzonitrile] | 0.01 to 10 |
| CCCCc1nc(=O)c(S(=O)(=O)c2ccc(-c3ccc(F)cc3C(N)=O)cn2)c(O)n1[C@@H](CC)c1cccc(C#N)c1 [Example 464, 2-[6-({2-butyl-1-[(1S)-1-(3-cyanophenyl)propyl]-6-hydroxy-4-oxo-1,4-dihydropyrimidin-5-yl)sulfonyl)pyridin-3-yl]-5-fluorobenzamide] | 0.01 to 10 |
| CCCCc1nc(=O)c(S(=O)(=O)c2ccc(-c3ccccc3C(N)=O)cc2)c(O)n1[C@@H](CC)c1cccc(C#N)c1 [Example 465, 4′-({2-butyl-1-[(1S)-1-(3-cyanophenyl)propyl]-6-hydroxy-4-oxo-1,4-dihydropyrimidin-5-yl}sulfonyl)-[1,1′-biphenyl]-2-carboxamide] | 0.01 to 10 |
| CCCCc1nc(=O)c(S(=O)(=O)c2ccc(-c3ccccc3C#N)cc2)c(O)n1[C@@H](CC)c1cccc(C#N)c1 [Example 466, 4′-({2-butyl-1-[(1S)-1-(3-cyanophenyl)propyl]-6-hydroxy-4-oxo-1,4-dihydropyrimidin-5-yl}sulfonyl)-[1,1′-biphenyl]-2-carbonitrile] | 0.01 to 10 |
| CCCCc1nc(=O)c(S(=O)(=O)c2ccc(-c3ccccc3C(N)=O)cn2)c(O)n1[C@@H](CC)c1cccc(C#N)c1 [Example 467, 2-[6-({2-butyl-1-[(1S)-1-(3-cyanophenyl)propyl]-6-hydroxy-4-oxo-1,4-dihydropyrimidin-5-yl}sulfonyl)pyridin-3-yl]benzamide] | 0.01 to 10 |
| CC[C@@H](c1cccc(C#N)c1)n1c(CC2CC2)nc(=O)c(S(=O)(=O)c2ccc(-c3ccccc3C(N)=O)cc2)c1O [Example 468, 4′-({1-[(1S)-1-(3-cyanophenyl)propyl]-2-(cyclopropylmethyl)-6-hydroxy-4-oxo-1,4-dihydropyrimidin-5-yl}sulfonyl)-[1,1′-biphenyl]-2-carboxamide] | 0.01 to 10 |
| CC[C@@H](c1cccc(C#N)c1)n1c(CC2CC2)nc(=O)c(S(=O)(=O)c2ccc(-c3ccc(F)cc3C(N)=O)cc2)c1O [Example 469, 4′-({1-[(1S)-1-(3-cyanophenyl)propyl]-2-(cyclopropylmethyl)-6-hydroxy-4-oxo-1,4-dihydropyrimidin-5-yl}sulfonyl)-4-fluoro-[1,1′-biphenyl]-2-carboxamide] | 0.01 to 10 |
| CC[C@@H](c1cccc(C#N)c1)n1c(CC2CC2)nc(=O)c(S(=O)(=O)c2ccc(-c3ccncc3C(N)=O)cc2)c1O [Example 470, 4-[4-({1-[(1S)-1-(3-cyanophenyl)propyl]-2-(cyclopropylmethyl)-6-hydroxy-4-oxo-1,4-dihydropyrimidin-5-yl}sulfonyl)phenyl] pyridine-3-carboxamide] | 0.01 to 10 |
| CC[C@@H](c1cccc(C#N)c1)n1c(CC2CC2)nc(=O)c(S(=O)(=O)c2ccc(-c3cnccc3C#N)cc2)c1O [Example 471, 3-[4-({1-[(1S)-1-(3-cyanophenyl)propyl]-2-(cyclopropylmethyl)-6-hydroxy-4-oxo-1,4-dihydropyrimidin-5-yl}sulfonyl)phenyl] pyridine-4-carbonitrile] | 0.01 to 10 |
| CC[C@@H](c1cccc(C#N)c1)n1c(CC2CC2)nc(=O)c(S(=O)(=O)c2ccc(-c3cnccc3C(N)=O)cc2)c1O [Example 472, 3-[4-({1-[(1S)-1-(3-cyanophenyl)propyl]-2-(cyclopropylmethyl)-6-hydroxy-4-oxo-1,4-dihydropyrimidin-5-yl}sulfonyl)phenyl] pyridine-4-carboxamide] | 0.01 to 10 |
| CC[C@@H](c1cc(F)cc(C#N)c1)n1c(CC2CC2)nc(=O)c(S(=O)(=O)c2ccc(-c3ccc(F)cc3C(N)=O)cc2)c1O [Example 473, 4′-({1-[(1S)-1-(3-cyano-5-fluorophenyl)propyl]-2-(cyclopropylmethyl)-6-hydroxy-4-oxo-1,4-dihydropyrimidin-5-yl}sulfonyl)-4-fluoro-[1,1′-biphenyl]-2-carboxamide] | 0.01 to 10 |
